Test results as given in patent US12054487B2, “Muscarinic acetylcholine M1 receptor antagonists” (Contineum Therapeutics, Inc., priority 2018, dated 2024).

Experiments:
Assay type in all cases: cell-based
M3 = M3 (Homo sapiens, UniProt P20309); test: In vitro functional assay of muscarinic acetylcholine receptor activity, M3; conditions: antagonist activity; M3 method not separately described
Procedure: [The procedure below names another target; the source lists this target under the same test.] (§1) CHO-K1 cells stably expressing human M1 receptor with Aequorin (Perkin Elmer) were grown in F12 media, 10% FBS with 0.4 mg/mL geneticin and […]. Cells were grown to confluence and frozen down to be assayed at a later date. On the day of the experiment cells were thawed in a 37° C. water bath, resuspended in DMEM/HAM's F12 with HEPES (Invitrogen)+0.1% protease-free BSA (assay buffer), and spun down to remove freezing media. After centrifugation, supernatant was removed and 12 mL of assay buffer was added. Coelenterazine h (Promega) was added to the cells at a final concentration of 5 uM and incubated for 4 hours at room temperature in the dark. Compound master plate-96 deep well (Corning) were formatted in a 8-point DRC in assay buffer with 0.2% DMSO at a starting concentration of 60 uM (2×). After 4 hours of incubation, cells were plated at a concentration of 5×10^5 cells/well in 96 well white-walled, tissue culture-treated, clear-bottom plates (VWR). Compounds were added to the daughter plate, and cells plus compound were incubated at room temperature for 30 minutes in the dark.
(§2) Calcium flux was measured using the FlexStation 3 (Molecular Devices). To measure the antagonist dose-response, the EC80 of Acetylcholine was injected to the daughter plate using the automated compound transfer function of the Flex Station, and the increase in luminescence was measured over time. Antagonist activity was analyzed as a concentration dependent decrease in the EC80 acetylcholine response. Dose response curves were generated using Prism (GraphPad Software). The IC50 of the compounds was calculated from the dose response curve.

M2 = target: T1, M2 (Homo sapiens, UniProt P08172); test: In vitro functional assay of muscarinic acetylcholine receptor activity, M2; conditions: antagonist activity; M2 method not separately described
T1 sequence (P08172 1-466): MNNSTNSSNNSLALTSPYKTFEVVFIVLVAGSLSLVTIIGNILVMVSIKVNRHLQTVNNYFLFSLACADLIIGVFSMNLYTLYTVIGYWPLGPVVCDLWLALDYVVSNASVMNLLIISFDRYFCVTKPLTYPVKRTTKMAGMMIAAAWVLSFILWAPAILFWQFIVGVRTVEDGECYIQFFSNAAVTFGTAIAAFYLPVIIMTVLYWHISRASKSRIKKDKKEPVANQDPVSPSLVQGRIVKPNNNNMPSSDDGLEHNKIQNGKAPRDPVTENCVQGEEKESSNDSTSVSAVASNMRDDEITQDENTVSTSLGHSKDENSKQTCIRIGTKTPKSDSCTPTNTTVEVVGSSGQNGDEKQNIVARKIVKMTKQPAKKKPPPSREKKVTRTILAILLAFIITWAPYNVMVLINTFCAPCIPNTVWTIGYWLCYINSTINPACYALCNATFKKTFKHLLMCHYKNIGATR
Procedure: [The procedure below names another target; the source lists this target under the same test.] as §1, §2

human M1 receptor = target: T2, human M1 receptor (Homo sapiens, UniProt P11229); test: In vitro functional assay of muscarinic acetylcholine receptor activity (aequorin calcium flux, antagonist mode vs EC80 acetylcholine), M1; conditions: CHO-K1 cells stably expressing human M1 receptor with Aequorin; decrease in EC80 acetylcholine response
T2 construct: host or cells: CHO-K1
T2 sequence (P11229 1-460): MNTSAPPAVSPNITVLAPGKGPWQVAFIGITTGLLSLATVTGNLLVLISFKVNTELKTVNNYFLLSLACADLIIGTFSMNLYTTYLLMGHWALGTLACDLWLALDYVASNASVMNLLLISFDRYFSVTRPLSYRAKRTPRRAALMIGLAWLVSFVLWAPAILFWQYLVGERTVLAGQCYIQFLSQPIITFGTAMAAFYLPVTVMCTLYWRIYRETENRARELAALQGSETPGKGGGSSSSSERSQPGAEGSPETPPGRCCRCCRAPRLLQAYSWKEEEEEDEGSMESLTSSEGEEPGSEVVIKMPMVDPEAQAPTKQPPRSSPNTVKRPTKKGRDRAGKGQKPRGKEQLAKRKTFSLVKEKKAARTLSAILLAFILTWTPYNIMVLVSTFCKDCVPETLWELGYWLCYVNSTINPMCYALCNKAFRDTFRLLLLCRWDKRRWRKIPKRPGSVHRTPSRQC
Procedure: as §1, §2

M3, sequence (P20309 whole entry): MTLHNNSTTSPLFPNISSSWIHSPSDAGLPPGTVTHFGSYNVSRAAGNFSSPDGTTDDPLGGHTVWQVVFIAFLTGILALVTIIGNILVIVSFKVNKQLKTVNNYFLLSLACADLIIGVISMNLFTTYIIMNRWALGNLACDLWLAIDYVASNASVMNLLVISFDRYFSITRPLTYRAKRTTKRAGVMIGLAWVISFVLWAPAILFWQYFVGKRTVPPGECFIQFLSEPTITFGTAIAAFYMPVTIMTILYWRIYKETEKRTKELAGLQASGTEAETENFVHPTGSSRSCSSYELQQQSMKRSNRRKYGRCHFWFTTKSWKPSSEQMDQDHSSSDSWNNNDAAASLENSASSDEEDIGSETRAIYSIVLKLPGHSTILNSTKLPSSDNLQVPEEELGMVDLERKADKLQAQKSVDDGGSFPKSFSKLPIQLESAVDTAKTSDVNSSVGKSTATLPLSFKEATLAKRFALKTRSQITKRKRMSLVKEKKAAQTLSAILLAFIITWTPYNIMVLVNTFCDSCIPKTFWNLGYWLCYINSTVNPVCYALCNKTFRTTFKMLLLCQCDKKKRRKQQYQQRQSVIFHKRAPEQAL

Row | SMILES | IC50 (M3) [nM] | IC50 (M2) [nM] | IC50 (human M1 receptor) [nM]
1 | N#Cc1ccc(N2CCN3C(=O)[C@@H](CCCc4cccn5ccnc45)C[C@H]3C2)nc1 [Example 15] | 1000 to 10000 | > 10000 | 100 to 1000
2 | N#Cc1ccc(N2CCN3C(=O)[C@@H](CCCc4cccc5nncn45)C[C@H]3C2)nc1 [Example 16, 6-((7S,8aS)-7-(3-([1,2,4]triazolo[4,3-a]pyridin-5-yl)propyl)-6-oxohexahydropyrrolo[1,2-a]pyrazin-2(1H)-yl)nicotinonitrile] | 100 to 1000 | 100 to 1000 | 100 to 1000
3 | N#Cc1ccc(N2CCN3C(=O)[C@@H](CCCc4cccc5nnnn45)C[C@H]3C2)nc1 [Example 17, 6-((7S,8aS)-6-oxo-7-(3-(tetrazolo[1,5-a]pyridin-5-yl)propyl)hexahydropyrrolo[1,2-a]pyrazin-2(1H)-yl)nicotinonitrile] | 1000 to 10000 | 1000 to 10000 | < 100
4 | N#Cc1ccc(N2CCN3C(=O)[C@@H](CCCc4cccc5c4CCC5)C[C@H]3C2)nc1 [Example 18, 6-((7S,8aS)-7-(3-(2,3-dihydro-1H-inden-4-yl)propyl)-6-oxohexahydropyrrolo[1,2-a]pyrazin-2(1H)-yl)nicotinonitrile] | > 10000 | 1000 to 10000 | 1000 to 10000
5 | N#Cc1ccc(N2CCN3C(=O)[C@@H](CCCc4cccc5c4CCO5)C[C@H]3C2)nc1 [Example 19, 6-((7S,8aS)-7-(3-(2,3-dihydrobenzofuran-4-yl)propyl)-6-oxohexahydropyrrolo[1,2-a]pyrazin-2(1H)-yl)nicotinonitrile] | 1000 to 10000 | 100 to 1000 | < 100
6 | N#Cc1ccc(N2CCN3C(=O)[C@@H](CCCc4ccc5c(c4)CCO5)C[C@H]3C2)nc1 [Example 20, 6-((7S,8aS)-7-(3-(2,3-dihydrobenzofuran-5-yl)propyl)-6-oxohexahydropyrrolo[1,2-a]pyrazin-2(1H)-yl)nicotinonitrile] | 1000 to 10000 | 1000 to 10000 | 100 to 1000
7 | Cc1nc2cccc(CCC[C@H]3C[C@H]4CN(c5ccc(C#N)cn5)CCN4C3=O)c2o1 [Example 21, 6-((7S,8aS)-7-(3-(2-methylbenzo[d]oxazol-7-yl)propyl)-6-oxohexahydropyrrolo[1,2-a]pyrazin-2(1H)-yl)nicotinonitrile] | 1000 to 10000 | 1000 to 10000 | < 100
8 | N#Cc1ccc(N2CCN3C(=O)[C@@H](CCCc4cccc5ncoc45)C[C@H]3C2)nc1 [Example 22, 6-((7S,8aS)-7-(3-(benzo[d]oxazol-7-yl)propyl)-6-oxohexahydropyrrolo[1,2-a]pyrazin-2(1H)-yl)nicotinonitrile] | 1000 to 10000 | 100 to 1000 | < 100
9 | N#Cc1ccc(N2CCN3C(=O)[C@@H](CCCc4cccc(F)c4C4CC4)C[C@H]3C2)nc1 [Example 25, 6-((7S,8aS)-7-(3-(2-cyclopropyl-3-fluorophenyl)propyl)-6-oxohexahydropyrrolo[1,2-a]pyrazin-2(1H)-yl)nicotinonitrile] | 100 to 1000 | 1000 to 10000 | < 100
10 | O=C1[C@@H](CCCc2cccc3ncsc23)C[C@H]2CN(c3cccnc3)CCN12 [Example 26, (7S,8aS)-7-(3-(benzo[d]thiazol-7-yl)propyl)-2-(pyridin-3-yl)hexahydropyrrolo[1,2-a]pyrazin-6(2H)-one] | 1000 to 10000 | > 10000 | 100 to 1000
11 | O=C1[C@@H](CCCc2cccc3ncsc23)C[C@H]2CN(c3ccccn3)CCN12 [Example 27, (7S,8aS)-7-(3-(benzo[d]thiazol-7-yl)propyl)-2-(pyridin-2-yl)hexahydropyrrolo[1,2-a]pyrazin-6(2H)-one] | 1000 to 10000 | > 10000 | 100 to 1000
12 | O=C1[C@@H](CCCc2cccc3ncsc23)C[C@H]2CN(c3ccncc3)CCN12 [Example 28, (7S,8aS)-7-(3-(benzo[d]thiazol-7-yl)propyl)-2-(pyridin-4-yl)hexahydropyrrolo[1,2-a]pyrazin-6(2H)-one] | 100 to 1000 | 100 to 1000 | < 100
13 | Nc1cc(N2CCN3C(=O)[C@@H](CCCc4cccc5ncsc45)C[C@H]3C2)ccn1 [Example 30, (7S,8aS)-2-(2-aminopyridin-4-yl)-7-(3-(benzo[d]thiazol-7-yl)propyl)hexahydropyrrolo[1,2-a]pyrazin-6(2H)-one] | 1000 to 10000 | 1000 to 10000 | < 100
14 | O=C1[C@@H](CCCc2cccc3ncnn23)C[C@H]2CN(c3cccc(C(F)(F)F)n3)CCN12 [Example 31, (7S,8aS)-7-(3-([1,2,4]triazolo[1,5-a]pyridin-5-yl)propyl)-2-(6-(trifluoromethyl)pyridin-2-yl)hexahydropyrrolo[1,2-a]pyrazin-6(2H)-one] | > 10000 | > 10000 | 1000 to 10000
15 | O=C1[C@@H](CCCc2cccc3ncnn23)C[C@H]2CN(c3ccc(C(F)(F)F)cn3)CCN12 [Example 32, (7S,8aS)-7-(3-([1,2,4]triazolo[1,5-a]pyridin-5-yl)propyl)-2-(5-(trifluoromethyl)pyridin-2-yl)hexahydropyrrolo[1,2-a]pyrazin-6(2H)-one] | 1000 to 10000 | 100 to 1000 | < 100
16 | O=C1[C@@H](CCCc2cccc3ncnn23)C[C@H]2CN(c3ccnc(C(F)(F)F)c3)CCN12 [Example 33, (7S,8aS)-7-(3-([1,2,4]triazolo[1,5-a]pyridin-5-yl)propyl)-2-(2-(trifluoromethyl)pyridin-4-yl)hexahydropyrrolo[1,2-a]pyrazin-6(2H)-one] | 1000 to 10000 | 1000 to 10000 | 100 to 1000
17 | O=C1[C@@H](CCCc2cccc3ncnn23)C[C@H]2CN(c3ccc(Cl)cn3)CCN12 [Example 34, (7S,8aS)-7-(3-([1,2,4]triazolo[1,5-a]pyridin-5-yl)propyl)-2-(5-chloropyridin-2-yl)hexahydropyrrolo[1,2-a]pyrazin-6(2H)-one] | 1000 to 10000 | 1000 to 10000 | < 100
18 | O=C1[C@@H](CCCc2cccc3ncnn23)C[C@H]2CN(c3ncc(F)cn3)CCN12 [Example 35, (7S,8aS)-7-(3-([1,2,4]triazolo[1,5-a]pyridin-5-yl)propyl)-2-(5-fluoropyrimidin-2-yl)hexahydropyrrolo[1,2-a]pyrazin-6(2H)-one] | > 10000 | > 10000 | < 100
19 | COc1cc(N2CCN3C(=O)[C@@H](CCCc4cccc5ncnn45)C[C@H]3C2)ccn1 [Example 37, (7S,8aS)-2-(2-methoxypyridin-4-yl)-7-(3-{[1,2,4]triazolo[1,5-a]pyridin-5-yl}propyl)-octahydropyrrolo[1,2-a]pyrazin-6-one] | 1000 to 10000 | 1000 to 10000 | < 100
20 | COc1ccc(N2CCN3C(=O)[C@@H](CCCc4cccc5ncnn45)C[C@H]3C2)cn1 [Example 38, (7S,8aS)-7-(3-([1,2,4]triazolo[1,5-a]pyridin-5-yl)propyl)-2-(6-methoxypyridin-3-yl)hexahydropyrrolo[1,2-a]pyrazin-6(2H)-one] | > 10000 | > 10000 | 1000 to 10000
21 | O=C1[C@@H](CCCc2cccc3ncnn23)C[C@H]2CN(c3ccc(OC(F)F)cn3)CCN12 [Example 39, (7S,8aS)-7-(3-([1,2,4]triazolo[1,5-a]pyridin-5-yl)propyl)-2-(5-(difluoromethoxy)pyridin-2-yl)hexahydropyrrolo[1,2-a]pyrazin-6(2H)-one] | 1000 to 10000 | > 10000 | 100 to 1000
